Measured values taken from ChEMBL document CHEMBL1275339, “Anti-leishmanial and anti-trypanosomal activities of 1,4-dihydropyridines: In vitro evaluation and structure-activity relationship study” (Bioorg Med Chem, 2010).

Tests used:
[1] = Cytotoxicity in BALB/c mouse erythrocytes assessed as hemolysis at 50 uM after 3 hrs; type: cell-based; conditions: erythrocyte
Leishmania chagasi [2] = test: Antileishmanial activity against amastigotes of Leishmania chagasi MHOM/BR/1972/LD after 24 hrs by MTT assay; type: functional, organism-based
LLC-MK2 = test: Cytotoxicity against rhesus monkey LLC-MK2 cells after 48 hrs by MTT assay; type: cell-based, Macaca mulatta
Trypanosoma cruzi [3] = test: Antitrypanosomal activity against epimastigotes of Trypanosoma cruzi; type: functional, organism-based
[4] = Selectivity index, ratio of IC50 for rhesus monkey LLC-MK2 cells to IC50 for trypomastigotes of Trypanosoma cruzi; type: toxicity, cell-based; conditions: read-out: Selectivity Index
Trypanosoma cruzi [5] = test: Antitrypanosomal activity against trypomastigotes of Trypanosoma cruzi infected in rhesus monkey LLC-MK2 cells after 48 hrs by MTT assay; type: functional, organism-based; conditions: LLC-MK2, 48 h
Leishmania chagasi [6] = test: Antileishmanial activity against promastigotes of Leishmania chagasi MHOM/BR/1972/LD after 18 hrs by MTT assay; type: functional, organism-based
Leishmania braziliensis = test: Antileishmanial activity against promastigotes of Leishmania braziliensis MHO/BR/75/M2903 after 18 hrs by MTT assay; type: functional, organism-based; conditions: MHO/BR/75/M2903, 18 h
Leishmania major = test: Antileishmanial activity against promastigotes of Leishmania major MHOM/1L/80/Fredlin after 18 hrs by MTT assay; type: functional, organism-based
Leishmania amazonensis = test: Antileishmanial activity against promastigotes of Leishmania amazonensis WHO/BR/00/LT0016 after 18 hrs by MTT assay; type: functional, organism-based; conditions: WHO/BR/00/LT0016, 18 h
[7] = Selectivity index, ratio of IC50 for rhesus monkey LLC-MK2 cells to IC50 for amastigotes of Leishmania chagasi MHOM/BR/1972/LD; type: toxicity, cell-based; conditions: read-out: Selectivity Index
[8] = Leishmania chagasi, MHOM/BR/1972/LD, 24 h

Row | Compound | Activity [1] | IC50 (Leishmania chagasi [2]) [µM] | IC50 (LLC-MK2; llc-mk2) [µM] | IC50 (Trypanosoma cruzi [3]) [µM] | selectivity ratio [4] | IC50 (Trypanosoma cruzi [5]) [µM] | IC50 (LLC-MK2; Macaca mulatta, LLC-MK2, 48 h) [µM] | IC50 (Leishmania chagasi [6]) [µM] | IC50 (Leishmania braziliensis) [µM] | IC50 (Leishmania major) [µM] | IC50 (Leishmania amazonensis) [µM] | IC50 (Leishmania chagasi [2]; [8]) [µM] | selectivity ratio [7]
1 | MEGLUMINE ANTIMONATE | Non-toxic | 82.3 | > 1370 |  |  |  |  |  |  |  |  |  | 
2 | COC(=O)C1=C(C)NC(C)=C(C(=O)OC(C)C)C1c1cccc2nonc12 (centres undefined) [ISRADIPINE] | Non-toxic |  |  | 20.8 |  |  |  |  |  |  |  |  | 
3 | CC1=C(C(=O)OC(C)C)C(c2cccc([N+](=O)[O-])c2)C(C(=O)OC2CN(C(c3ccccc3)c3ccccc3)C2)=C(N)N1 (centres undefined) [AZELNIDIPINE] | Non-toxic |  |  |  | 11.5 | 2.9 | 33.5 | 33.4 | 13.7 | 17.1 | 20.5 |  | 
4 | COC(=O)C1=C(C)NC(C)=C(C(=O)OC(C)(C)CN(C)CCC(c2ccccc2)c2ccccc2)C1c1cccc([N+](=O)[O-])c1 (centres undefined) [LERCANIDIPINE] | Non-toxic |  |  |  | 51.6 | 8.43 | 435 | 19.2 | 10.3 | 11.6 | 16.9 | 10.4 | 42
5 | O=C(Cn1ccnc1[N+](=O)[O-])NCc1ccccc1 [BENZNIDAZOLE] | Non-toxic |  |  |  |  | 172 | > 1370 |  |  |  |  |  | 
6 | COCCOC(=O)C1=C(C)NC(C)=C(C(=O)OC/C=C/c2ccccc2)C1c1cccc([N+](=O)[O-])c1 (centres undefined) [CILNIDIPINE] | Non-toxic |  |  |  | 39.4 | 5.62 | 222 | 33 | 15.3 | 21.4 | 111 | 28.4 | 7.79
7 | N=C(N)c1ccc(OCCCCCOc2ccc(C(=N)N)cc2)cc1 [PENTAMIDINE] | Non-toxic |  |  |  |  |  | 25.6 | 1.11 | 0.15 | 0.47 | 0.49 |  | 
8 | CCOC(=O)C1=C(C)NC(C)=C(C(=O)OCC)C1c1ccccc1/C=C/C(=O)OC(C)(C)C [LACIDIPINE] | Non-toxic |  |  | 33.5 |  |  |  |  |  |  |  |  | 
9 | COC(=O)C1=C(C)NC(C)=C(C(=O)OCCN(C)Cc2ccccc2)C1c1cccc([N+](=O)[O-])c1 (centres undefined) [NICARDIPINE] | Non-toxic |  |  |  | 6.76 | 10.6 | 71.6 | 35.7 | 19.1 | 21.8 | 26.5 | 22 | 3.25
10 | COCCOC(=O)C1=C(C)NC(C)=C(C(=O)OC(C)C)C1c1cccc([N+](=O)[O-])c1 (centres undefined) [NIMODIPINE] | Non-toxic |  |  |  | 2.98 | 32.3 | 96.2 | 82.7 | 42.8 | 31 | 128 | 21.6 | 4.45
11 | COC(=O)C1=C(C)NC(C)=C(C(=O)OC)C1c1ccccc1[N+](=O)[O-] [NIFEDIPINE] | Non-toxic |  |  |  | 5.78 | 102 | 589 | 146 | 95.7 | 181 | 118 | 176 | 4.21
12 | CCOC(=O)C1=C(C)NC(C)=C(C(=O)OC)C1c1cccc([N+](=O)[O-])c1 (centres undefined) [NITRENDIPINE] | Non-toxic |  |  |  | 5.12 | 26.9 | 138 | 64.1 | 39 | 33.3 | 38.3 | 43.8 | 3.14
13 | CCOC(=O)C1=C(COCCN)NC(C)=C(C(=O)OC)C1c1ccccc1Cl (centres undefined) [AMLODIPINE] | Non-toxic |  |  |  | 8.77 | 8.07 | 70.8 | 2.61 | 3.13 | 3.35 | 2.93 | 5.35 | 13.2
